Tests used:
[1] = target: human vasopressin V1a receptor (Homo sapiens, UniProt P37288); assay: Receptor binding study, [3H]AVP displacement on CHO cell membranes, human V1a; conditions: [3H]AVP displacement, CHO cell membrane, 25° C., one hour; read-out: Human V1a Ki
Method: (§1) (ii) Receptor Binding Study
(§2) Assay was performed using 50 mM of Tris-HCl (pH=7.4) (total amount: 250 μL) (buffer composition: containing […] of MgCl2 and 0.1% BSA), and incubation was performed at room temperature (25° C.) for one hour. After incubation, suck filtration was immediately performed and reaction was completed when the membrane sample was collected on a glass fiber filter fitted with the microplate. After the filter was washed with an ice-cold Tris-HCl buffer (50 mM Tris-HCl, 10 mM MgCl2, pH 7.4), radioactivity measurement was performed. Nonspecific binding was determined using nonradioactive-labeled AVP (1 μM).

[2] = target: human vasopressin V2 receptor (Homo sapiens, UniProt P30518); assay: Receptor binding study, [3H]AVP displacement on CHO cell membranes, human V2; conditions: [3H]AVP displacement, CHO cell membrane, 25° C., one hour; read-out: Human V2 Ki
Sequence of human vasopressin V2 receptor (P30518 whole entry): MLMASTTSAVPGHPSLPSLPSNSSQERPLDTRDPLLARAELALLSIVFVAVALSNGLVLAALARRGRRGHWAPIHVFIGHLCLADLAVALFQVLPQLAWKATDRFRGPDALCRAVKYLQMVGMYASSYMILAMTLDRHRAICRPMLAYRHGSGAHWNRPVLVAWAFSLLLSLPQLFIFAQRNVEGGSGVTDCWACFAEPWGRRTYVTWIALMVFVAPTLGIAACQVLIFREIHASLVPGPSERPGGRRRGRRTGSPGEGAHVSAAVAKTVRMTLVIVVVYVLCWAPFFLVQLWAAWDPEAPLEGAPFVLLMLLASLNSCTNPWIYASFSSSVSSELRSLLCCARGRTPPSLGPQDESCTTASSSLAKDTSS
Method: Preparation of Chinese hamster ovary (Cho) cell which expresses human vasopressin receptor subtype and production of membrane sample of the cell was conducted according to the method of Tahara et al. (Br. J. Pharmacol., 125, 1463-1470, 1998).
as §1
as §2, with “In saturation binding experiment, the membrane sample and [^3H]AVP of several concentrations (0.125 nM to 4.0 nM) were mixed and incubated in microplate wells. In displacement experiment, [^3H]AVP of constant concentrations (0.5 nM to 1.0 nM) and the membrane sample were mixed with Compound A of several concentrations, and incubation was performed. Assay” for “Assay”

Sequence of human vasopressin V1a receptor (P37288 whole entry): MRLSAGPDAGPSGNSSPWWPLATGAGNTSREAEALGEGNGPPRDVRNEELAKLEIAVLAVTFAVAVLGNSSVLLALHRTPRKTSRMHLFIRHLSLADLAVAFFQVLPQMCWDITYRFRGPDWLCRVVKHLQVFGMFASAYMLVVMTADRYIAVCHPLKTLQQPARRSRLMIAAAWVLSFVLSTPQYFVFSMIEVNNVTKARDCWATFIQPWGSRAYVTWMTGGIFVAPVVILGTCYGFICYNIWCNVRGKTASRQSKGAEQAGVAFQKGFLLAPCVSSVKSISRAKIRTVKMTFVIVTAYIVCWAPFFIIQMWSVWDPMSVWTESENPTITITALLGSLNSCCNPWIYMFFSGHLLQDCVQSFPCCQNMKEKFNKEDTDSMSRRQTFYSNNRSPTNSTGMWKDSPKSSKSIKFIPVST

Structure (SMILES)	Ki [1]	Ki [2]
C[C@H]1CCN(C(=O)c2ccc(-c3ccc4[nH]ccc4c3)c(OCCCCN3CCOCC3)c2)c2ccccc2N1 [Example 67, (4S)-1-[4-(1H-indol-5-yl)-3-[4-(4-morpholinyl)butoxy]benzoyl]-4-methyl-2,3,4,5-tetrahydro-1H-1,5-benzodiazepine]	0.19 nM	8.7 nM
C[C@H]1CCN(C(=O)c2ccc(-c3ccc4[nH]ccc4c3)c(OCCCN3CCC(C(N)=O)CC3)c2)c2ccccc2N1 [Example 83, 1-[3-[2-(1H-indol-5-yl)-5-[[(4S)-4-methyl-2,3,4,5-tetrahydro-1H-1,5-benzodiazepin-1-yl]carbonyl]phenoxy]propyl]-4-piperidine carboxamide]	0.13 nM	17 nM
CCCN(C)CCCOc1cc(C(=O)N2CC[C@@H](C)Nc3ccccc32)ccc1-c1ccc(NC)cc1 [Example 130, N-methyl-2′-[3-[methyl(propyl)amino]propoxy]-4′-[[(4R)-4-methyl-2,3,4,5-tetrahydro-1H-1,5-benzodiazepin-1-yl]carbonyl][1,1′-biphenyl]-4-amine]	0.36 nM	309 nM
C[C@@H]1CCN(C(=O)c2ccc(-c3ccc4[nH]ccc4c3)c(OCCCN)c2)c2ccccc2N1 [Example 55, 3-[2-(1H-indol-5-yl)-5-[[(4R)-4-methyl-2,3,4,5-tetrahydro-1H-1,5-benzodiazepin-1-yl]carbonyl]phenoxy]propylamine]	0.31 nM	25 nM
COc1ccc(S(=O)(=O)N2c3ccc(Cl)cc3[C@](O)(c3ccccc3Cl)[C@@H]2C(=O)N2CCC[C@H]2C(N)=O)cc1OC [SR49059, reference compound]	–	143 nM

Further lines, results first:

Ki [1]	Ki [2]	Structure (SMILES)
0.11 nM	12 nM	C[C@H]1CCN(C(=O)c2ccc(-c3ccc4[nH]ccc4c3)c(OCCCN(C)C)c2)c2ccccc2N1 [Example 78, N-[3-[2-(1H-indol-5-yl)-5-[[(4S)-4-methyl-2,3,4,5-tetrahydro-1H-1,5-benzodiazepin-1-yl]carbonyl]phenoxy]propyl]-N,N-dimethylamine]
0.38 nM	15 nM	CC(=O)Nc1cc(C(=O)N2CCC(C(C)C)Nc3ccccc32)ccc1-c1ccc2[nH]ccc2c1 (centres unmarked) [Example 7, N-[2-(1H-indol-5-yl)-5-[(4-isopropyl-2,3,4,5-tetrahydro-1H-1,5-benzodiazepin-1-yl)carbonyl]phenyl]acetamide]
0.13 nM	0.39 nM	C[C@H]1CCN(C(=O)c2ccc(-c3ccc4[nH]ccc4c3)c(OCCCN3C(=O)CNC3=O)c2)c2ccccc2N1 [Example 97, 3-[3-[2-(1H-indol-5-yl)-5-[[(4S)-4-methyl-2,3,4,5-tetrahydro-1H-1,5-benzodiazepin-1-yl]carbonyl]phenoxy]propyl]-2,4-imidazolidinedion]
0.22 nM	5.2 nM	CC1CCN(C(=O)c2ccc(-c3ccc4[nH]ccc4c3)c(OCCCCCCN)c2)c2ccccc2N1 (centres unmarked) [Example 39, 6-[2-(1H-indol-5-yl)-5-[(4-methyl-2,3,4,5-tetrahydro-1H-1,5-benzodiazepin-1-yl)carbonyl]phenoxy]hexylamine]
0.13 nM	7.1 nM	C[C@H]1CCN(C(=O)c2ccc(-c3ccc4[nH]ccc4c3)c(OCCCN3CCCN(C)CC3)c2)c2ccccc2N1 [Example 109, (4S)-1-[4-(1H-indol-5-yl)-3-[3-(4-methyl-1,4-diazepane-1-yl)propoxy]benzoyl]-4-methyl-2,3,4,5-tetrahydro-1H-1,5-benzodiazepine]
0.35 nM	3.5 nM	Cc1ccc2c(c1)NC(C)CCN2C(=O)c1ccc(-c2ccc3[nH]ccc3c2)c(OCCN2CCOCC2)c1 (centres unmarked) [Example 104, 5-[(4,7-dimethyl-2,3,4,5-tetrahydro-1H-1,5-benzodiazepin-1-yl]carbonyl]-2-(1H-indol-5-yl)phenyl 2-(4-morpholinyl)ethyl ether]
0.052 nM	7.7 nM	CC(C)N(C)CCCOc1cc(C(=O)N2CC[C@H](C)Nc3ccccc32)ccc1-c1ccc2[nH]ccc2c1 [Example 85, N-[3-[2-(1H-indol-5-yl)-5-[[(4S)-4-methyl-2,3,4,5-tetrahydro-1H-1,5-benzodiazepin-1-yl]carbonyl]phenoxy]propyl]-N-isopropyl-N-methylamine]

From US20080076760A1, “2,3,4,5-TETRAHYDRO-1H-1,5-BENZODIAZEPINE DERIVATIVE AND MEDICINAL COMPOSITION” (priority 2004, published 2008)
